These are literature values, as cited in patent US10159714B2, “Compositions, devices and methods of use thereof for the treatment of cancers” (Intarcia Therapeutics, Inc., priority 2011, dated 2018).

For data set [1], the system named is prostatic tumors in Noble and Dunning male rats and DMBA-induced mammary tumors in female rats. The following applies: hormone-dependent tumors in rats.
Data set [2] deals with gonadotropin secretion / testosterone.
In data set [3] the test system is fasting hyperglycemia. The following applies: type 2 diabetic patients.

Where no end group is shown, it is not given here.

Turning to `CCNC(=O)[C@@H]1CCCN1C(=O)[C@H](CCCNC(=N)N)NC(=O)[C@H](CC(C)C)NC(=O)[C@@H](CC(C)C)NC(=O)[C@H](Cc1ccc(O)cc1)NC(=O)[C@H](CO)NC(=O)[C@H](Cc1c[nH]c2ccccc12)NC(=O)[C@H](Cc1c[nH]cn1)NC(=O)[C@@H]1CCC(=O)N1` [leuprolide acetate], in data set [1], the tumor growth result was “inhibition of the growth”. The “time to decrease of LH, FSH and testosterone after initiation of treatment” value in data set [2] (continuous administration) is reported as “two to six”. Besides, the oral activity entry in data set [2] (in vivo, po) was “not active when given orally”. Further, the testosterone level entry in data set [2] (males, continuous administration) is reported as “reduced to castrate levels”.

Turning to “GLP-1(7-37) (HAEGTFTSDVSSYLEGQAAKEFIAWLVKGRG; Glucagon-like peptide 1(7-37); UniProt P01275 98-128, looked up) [form of the GLP-1 peptide]”, in data set [3], the “effect on fasting hyperglycemia” value is “normalize fasting hyperglycemia”.

With “glucagon-like peptide-1 (7-36) amide (HAEGTFTSDVSSYLEGQAAKEFIAWLVKGR-NH2; listed as Homo sapiens) [GLP-1(7-36)amide]”, the “effect on fasting hyperglycemia” value in data set [3] is “normalize fasting hyperglycemia”.
